Experimental findings from patent publication US9250238B2, “Pathogen detection” (priority 2010, dated 2016) are described below.

For one experiment, the system named is Y. enterocolitica. Description: Capture on FOB-BSA micropatterned chips, darkfield and FFT. In kind it is binding, Yersinia enterocolitica. The conditions noted are these: NHS-activated codelink slide, 10^8 cfu/ml.
The target of another experiment is T1, peanut lectin (Arachis hypogaea, UniProt P02872).
T1 construct: purchased Sigma (St. Louis, Mo.)
The experiment is described as follows: Flow immunocytometry of peanut lectin binding to lactose-conjugated microspheres. Here is the method: Bishydrazide glycoconjugates can be directly attached onto surface-active substrates for the selective capture of lectins and subsequent binding immunoassays. For example, lactosebishydrazide 6 was attached onto NHS-activated latex microspheres in order to measure the binding affinity of peanut lectin by flow immunocytometry (Kd)) 50 nM), using a FITC-labeled secondary antibody for fluorescence detection (FIGS. 12A and 13). […] However, in some cases the use of carrier proteins such as BSA may be more convenient for surface functionalization by simple physisorption.
For flow cytometry, carboxylic acid functionalized microspheres were conjugated to lactose-bishydrazide 6 via standard EDC coupling for 16 hours at room temperature, followed by multiple washes with PBS. The lactose-conjugated microspheres were dispersed in PBS (1.2 mL) and split into several Eppendorf tubes, which were incubated with increasing concentrations of peanut lectin in the presence or absence of 100-fold excess lactose. After incubating for 2 hours at room temperature, tubes were rinsed and subjected to sequential incubation with anti-lectin rabbit IgG and anti-rabbit FITC IgG as described above. The microspheres were then analyzed for fluorescent immunolabeling using a flow cytometer (Cytomics F500, Beckman Coulter, 10^4 microspheres/sample). […]

Another experiment deals with Staphylococcus aureus. Description: PathoChip detection sensitivity. In kind it is binding. The note with it: ligand conjugated to BSA.
Another experiment has as its system Streptococcus pneumonaie. Description: PathoChip detection sensitivity. In kind it is binding. The note with it: ligand conjugated to BSA.
The subject of experiment [1] is Pseudomonas aeruginosa. The experiment is described as follows: PathoChip detection sensitivity. In kind it is binding. The note with it: ligand conjugated to BSA.
In another experiment the test system is Vibrio cholerae. The experiment is described as follows: PathoChip detection sensitivity. In kind it is binding. The note with it: ligand conjugated to BSA.
Experiment [2] relates to Pseudomonas aeruginosa. Description: Capture of Pseudomonas on glycan-patterned substrates, darkfield and FFT. In kind it is binding. The text has this: A similar approach was used to generate photopatterned arrays of the pulmonary trisaccharide and 2′-fucosyllactose on BSA-coated substrates, using glycan-bishydrazide-ANB conjugates 16 and 17, respectively. These micropatterned substrates were exposed to the opportunistic pathogen Pseudomonas aeruginosa at 10^6-10^8 cfu/mL, then washed and imaged by optical darkfield microscopy to visualize patterns of glycan-immobilized bacteria in a label-free manner (FIGS. 15-17). […] Furthermore, only live Pseudomonas were captured by the trisaccharide ligands; exposing the bacteria to UV irradiation for 2 hours prior to their introduction resulted again in no observable pattern (FIG. 18). […]
Glycan-bishydrazide conjugates could also be patterned onto substrates by microcontact printing (μCP), a well-established “soft lithography” technique based on microfabricated polydimethylsiloxane (PDMS) stamps for the physical transfer of organic or biomolecular ligands, including glycans (Kumar and Whitesides, Appl. Phys. Lett. 1993, 63:2002-2004; Bernard et al., Adv. Mater. 2000, 12:1067-1070; Inerowicz et al., Langmuir 2002, 18:5263-5268; Godula et al., Angew. Chem., Int. Ed 2009, 48:4973-4976; Wendeln et al., Langmuir 2010, 26:4933-4940). […] The substrates were blocked then exposed for 1 hour to Pseudomonas at 10^2-10^8 cfu/mL, then evaluated for evidence of patterned pathogen capture (FIGS. 19, 19A). […]

In a further experiment the test system is Mycobacterium smegmatis. Description: PathoChip detection sensitivity. Type of experiment: binding. The note with it: ligand conjugated to BSA.
For another experiment, the system named is Acinetobacter baumanii. Description: PathoChip detection sensitivity. In kind it is binding. The note with it: ligand conjugated to BSA.
A further experiment deals with Chlamydia trachomatis. Description: PathoChip detection sensitivity. The note with it: ligand conjugated to BSA. Type of experiment: binding.
In a further experiment the test system is Shigella spp. The experiment is described as follows: PathoChip detection sensitivity. In kind it is binding. The note with it: ligand conjugated to BSA.

T1 sequence (P02872 24-273): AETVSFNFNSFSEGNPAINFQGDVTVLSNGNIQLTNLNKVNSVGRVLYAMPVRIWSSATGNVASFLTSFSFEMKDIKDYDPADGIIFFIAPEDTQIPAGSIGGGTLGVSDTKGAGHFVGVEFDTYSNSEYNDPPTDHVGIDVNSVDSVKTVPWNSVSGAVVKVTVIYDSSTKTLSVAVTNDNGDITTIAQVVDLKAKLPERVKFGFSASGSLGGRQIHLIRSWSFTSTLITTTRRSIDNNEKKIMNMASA

With `CC(=O)N([O-])CCCCCNC(=O)CCC(=O)N([O-])CCCCCNC(=O)CCC(=O)N([O-])CCCCCN.[Fe+3]` [FOB, ferrioxamine], the “bacteria binding with ligand attached directly, no BSA linker” value with Y. enterocolitica is listed as “less bacteria binding onto the pattern than in the presence of BSA”.
As to `NNC(=O)COCCOCCOCCOCCOCCOCCOCC(=O)NN[C@@H]1OC(CO)[C@@H](OC2OC(CO)[C@H](O)[C@H](O)[C@@H]2O)[C@H](O)C1O` (stereo partly shown) [conjugate 6, Hexa(ethylene glycol)-linked lactose-bishydrazide conjugate], the affinity at peanut lectin (6 attached to NHS-activated latex microspheres, FITC secondary antibody), expressed as Kd, was 50 nM. For the same molecule, the “increase of Kd in competition assay” value at peanut lectin (against 1 mM lactose) worked out at 10 fold.
Hemin: the “sensitivity, Staphylococcus aureus” value in the experiment on Staphylococcus aureus was 1E3 cfu/mL. Further, in the experiment with Streptococcus pneumonaie, the “sensitivity, Streptococcus pneumonaie” value is 1E5 cfu/mL. Further, the “sensitivity, Pseudomonas aeruginosa” value in the experiment with Pseudomonas aeruginosa [1] is on record as 1E3 cfu/mL. Besides, the “sensitivity, Vibrio cholerae” value in the experiment with Vibrio cholerae is on record as 1E6/1E6 cfu/mL.
On to “Hexa(ethylene glycol)-Linked 2′-Fucosyllactose-Bishydrazide Conjugate [conjugate 8]”, for which the “avidity of Pseudomonas cultures relative to pulmonary trisaccharide 7” value in the experiment on Pseudomonas aeruginosa [2] is “much lower avidity”.
With heparin, the “sensitivity, Staphylococcus aureus” value with Staphylococcus aureus was determined as 1E6 cfu/mL. For the same molecule, the “sensitivity, Mycobacterium smegmatis” value in the experiment on Mycobacterium smegmatis was found to be 1E6 cfu/mL. In the experiment with Acinetobacter baumanii, the “sensitivity, Acinetobacter baumanii” value is listed as 1E6 cfu/mL. Further, the “sensitivity, Pseudomonas aeruginosa” value in the experiment with Pseudomonas aeruginosa [1] was 1E6 cfu/mL. The “sensitivity, Chlamydia trachomatis” value in the experiment on Chlamydia trachomatis is 1E3 cfu/mL; in the experiment with Chlamydia trachomatis (listed as Heparin) it was 10^3 cfu/mL. In addition, in the experiment on Vibrio cholerae, the “sensitivity, Vibrio cholerae” value was 1E6+ cfu/mL. Moreover, the “sensitivity, Shigella spp.” value in the experiment on Shigella spp. is reported as 1E6+ cfu/mL.

For orientation: Kd means a measure of binding affinity in units of concentration. The low end stands for tighter binding, the high end for weaker binding.
